For data set [1], the system named is CHL/IU cells. Briefly: Chromosomal aberration test in cultured mammalian cells (GLP). Type of data set: cell-based. The following applies: 25~140 μg/mL. Here is the method:
Bacterial reverse mutation assay (Study no. YL18407). The bacterial reverse mutation assay of STP0404 was performed in two conditions (with or without metabolic activation) for the dose range-finding test (doses of STP0404rangingfrom 2.29 to 5,000μg/plate) and the main test (doses of STP0404 ranging from 19.5 to 5,000 μg/plate) in comparison with negative control (DMSO) and active controls (sodium azide, 2-(2-furyl)-3-(5-nitro-2-furyl) acrylamide, 2-aminoanthracene, 9-aminoacridine hydrochloride). Salmonella typhimurium (TA100, TA1535) and Escherichia coli (WP2uvrA) were used for detection of base-pair substitutions. Salmonella typhimurium (TA98, TA1537) was used for detection of frameshift mutations. Chromosomal Aberration Test of STP0404 in Cultured Mammalian Cells (Study no. YL18408). Presence/absence of genotoxicity of STP0404 was determined using chromosomal aberration test carried out in CHL/IU cells. The test comprised a dose range-finding test and a main test. Micronucleus Study of STP0404 by oral administration in Rats (Study no. YL18409). STP0404 was administered orally to SD rats (3/group in preliminary test and 6/group in the main test) at dose levels of 500, 1000 and 2000 mg/kg/day once daily for 2 days in a two-test study (preliminary test and main test) to investigate the genotoxicity profile of STP0404. […] Bone marrow smear slides were evaluated (INA Research, Japan).

In data set [2] the target is T1, full-length IN (Human immunodeficiency virus type 1 group M subtype B, UniProt P12497).
T1 construct: between two full-length IN protein populations differentially labeled
Briefly: HTRF-based IN multimerization assay. Type of data set: biochemical, HIV-1. On the procedure:
To test the ability of STP0404 to induce higher-order multimerization of IN we employed homogeneous time-resolved fluorescence (HTRF)-based assay. Briefly, His-tagged and FLAG-tagged INs (each at 10 nM final concentration) were mixed in buffer containing 25 mM Tris, pH 7.4, 150 mM NaCl, 2 mM MgCl2, 0.1% Nonidet P-40 and 1 mg/ml BSA. This mixture was incubated with various concentrations of the test compounds for 3 hrs at room temperature. The detection is based on anti-His6-XL665 and anti-FLAG-EuCryptate antibodies (Cisbio, Inc., Bedford, MA) which were added to the reaction and incubated at room temperature for 3 hrs. The HTRF signal was recorded by PerkinElmer EnSpire multimode plate reader and OriginLab software was used to calculate the EC50 values.
In general terms: In TR-FRET formats the signal depends on donor and acceptor labels being close together.

Data set [3] can be described thus: Plasma protein binding (equilibrium dialysis). The data set is classed as in vitro ADME. The following applies: Sprague-Dawley (rat), beagle (dog), cynomolgus monkey, pH 7.4, monkey and human plasma, read-out: In vitro protein binding. On the procedure:
The current study utilized the 96-well equilibrium dialysis device purchased from HTDialysis to dialyze the test compound and the control compound at 2 μM in plasma at 37±1°C for 4 hrs. Plasma prepared from Sprague-Dawley rats, beagle dog, cynomolgus monkey and humans were previously frozen at below -60°C. The dialysis membrane strips were soaked in ultra-pure water at room temperature for approximately 1 hr. After that, each membrane strip that contains 2 membranes was separated and soaked in ethanol:water (20,80 v,v) for approximately 20 mins, after which it was ready for use or was stored in the solution at 2–8°C for up to a month. Prior to the experiment, the membrane was rinsed and soaked for 20 mins in ultra-pure water. On the day of experiment, the plasma from Sprague-Dawley rats, beagle dogs, cynomolgus monkey and humans was thawed under running cold tap water and centrifuged at 3220×g for 5 mins to remove any clots and the pH value of the resulting plasma will be checked. if required, adjusted to 7.4 ± 0.1. All samples were further processed by protein precipitation for LC/MS/MS analysis (Wuxi AppTec, China).

The test system of data set [4] is HIV-1 NL4-3. Briefly: In vitro anti-viral assay in MT4 cells. Type of data set: cell-based.
In data set [5] the test system is CEMx174 cells. In words: Tissue culture cytotoxicity measurement in CEMx174 cells. Type of data set: cell-based. On the procedure: Fig 1 ALLINI structures and STP0404 activities. A. Quinoline-based BI224436, B. Benzothiazole-based GS-9822, C. Pyridine-based KF116, D. Pyrrolopyridine-based STP0404. The conserved chemical moiety containing tert-butoxy and carboxylic acid groups are marked by “]”. E. In vitro anti-HIV-1 efficacy of STP0404 against HIV-1NL4-3 and 89.6 strains in indicated cell lines. TI: Minimal therapeutic index values were calculated with 50% in vitro inhibitory concentration values (IC50) and 10 μM where no sign of cytotoxicity was observed during tissue culture cytotoxicity measurements (TC50) of all tested compounds in both MT4 and CEMx174 cell lines.

The test system of data set [6] is HIV-1 GFP vector in pre-treated Jurkat cells. Briefly: HIV-1 inhibition in infecting cells (early stage). Type of data set: cell-based. Conditions: 60 nM in Jurkat cells; vector from untreated 293T cells. Here is the method: To test for STP0404’s inhibitory effects during the late stage of HIV-1 life cycle such as the maturation step, we employed the “producing cells” setup. In T75 tissue culture flasks, 293T cells were pre-treated with and without STP0404 (0 and 60 nM) for 2 hrs prior to transfection with pD3-HIV (13 μg) and pVSV-g (6 μg), using 0.3 mg/ml polyethylenimine. After 24 hrs incubation at 37°C, the supernatant was removed and replaced with fresh media with and without STP0404 (0 and 60 nM). 48 hrs later, D3-HIV vector from each treatment group was concentrated from the collected supernatant via ultracentrifugation (22,000 rpm for 2 hrs). Following p24 quantification, using 96-well plates, similar amount of respective D3-HIV vector was used to transduce Jurkat cells in triplicates for 48 hrs. The cells were harvested and fixed with 3.7% formaldehyde before being analyzed for GFP expression using FACS (Miltenyi Biotec, VYB). Separately, the “infecting cells” setup was used to investigate the inhibitory effects of STP0404 against the early stages of HIV-1 life cycle such as the integration and transcription steps. […] All data were analyzed using GraphPad Prism (Version 9). Unpaired t tests were performed to determine the significance of the readings in respective experimental set up relative to the untreated controls. […]

We go through 1 compound from publication PMC8297771 (PLoS Pathogens, 2021).

Turning to `Cc1nc2c(c(C)c(C)n2Cc2cnn(C)c2)c(-c2ccc(Cl)cc2)c1[C@H](OC(C)(C)C)C(=O)O` [STP0404], in data set [1], the chromosomal aberration-inducing potential result is reported as “lacked”. The EC50 (commonly the concentration needed to bring the measured effect to its halfway point) in data set [2] is 147 ± 20 nM. Further, the fraction unbound at 4 h, 2 μM in data set [3] was 0.003 to 0.061. Moreover, in data set [4] (HIV-1 NL4-3 / MT4 cells), the “TI (TC50 / IC50)” value is reported as > 6,020. Further, in data set [4] (Human immunodeficiency virus 1, NL43, MT4), the half-maximal inhibitory concentration (IC50) (as a rule, the midpoint of a concentration-inhibition curve) was found to be 1.66 ± 0.32 nM. Moreover, the TC50 in data set [5] is > 10,000 nM. In addition, in data set [6], the “transduction efficiency, infecting cells” value is listed as “no reduction in transduction efficiency”.
